In patent publication US20230022157A1 (Achillion Pharmaceuticals, Inc., priority 2018, published 2023):
Read-outs that look alike come from different tables or passages of the source.

Molecular target: T1, Human Factor D (Homo sapiens, UniProt P00746)
T1 construct: purified from human serum; purchased Complement Technology, Inc; host or cells: human serum (natural protein, not recombinant)
Assay: Human Factor D Assay
Format: biochemical
Summary of the method: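 Serum-purified human factor D (80 nM final) preincubated 5 min at room temperature with test compound in 50 mM Tris, 1M NaCl, pH 7.5. Z-L-Lys-SBzl substrate and DTNB then added, each at 100 μM final. IC50 from nonlinear regression of reaction rate against compound concentration.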

[1] = Human Factor D 80 nM, substrate Z-L-Lys-SBzl, Table 2, read-out: IC50 (Stars)
[2] = Human Factor D 80 nM, substrate Z-L-Lys-SBzl, assay of Example 3, read-out: IC50 (Stars)

T1 sequence (P00746 26-253): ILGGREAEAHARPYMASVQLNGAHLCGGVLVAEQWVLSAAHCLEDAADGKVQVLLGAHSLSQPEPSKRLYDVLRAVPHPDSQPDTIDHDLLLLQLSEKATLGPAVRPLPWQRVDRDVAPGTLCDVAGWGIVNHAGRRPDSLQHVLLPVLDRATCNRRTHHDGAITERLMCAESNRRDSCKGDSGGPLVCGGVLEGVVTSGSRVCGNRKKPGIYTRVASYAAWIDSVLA

Row | SMILES | IC50 [1] | other results
1 | CC(=O)c1nn(CC(=O)N2[C@H](C(=O)Nc3nc(Br)ccc3C)C[C@@]3(CNC(=O)COCCOCCNC(=O)COCCOCCNC(=O)CC[C@H](NC(=O)CCCCCCCCCCCCCCCCC(=O)O)C(=O)O)C[C@@H]23)c2ccc(OC(=O)NC3CC3)cc12 [Compound 15, (S)-1-((1R,3S,5R)-2-(2-(3-acetyl-5-((cyclopropylcarbamoyl)oxy)-1H-indazol-1-yl)acetyl)-3-((6-bromo-3-methylpyridin-2-yl)carbamoyl)-2-azabicyclo[3.1.0]hexan-5-yl)-24-carboxy-3,12,21,26-tetraoxo-5,8,14,17-tetraoxa-2,11,20,25-tetraazatritetracontan-43-oic acid] |  | IC50: < 1 µM
2 | CC(=O)c1nn(CC(=O)N2[C@H](C(=O)N[C@@H](C)CC(C)C)C[C@@]3(C)C[C@@H]23)c2ccc(-c3cnc(C)nc3)cc12 [Compound 10, (1R,3S,5R)-2-(2-(3-Acetyl-5-(2-methylpyrimidin-5-yl)-1H-indazol-1-yl)acetyl)-5-methyl-N—((S)-4-methylpentan-2-yl)-2-azabicyclo[3.1.0]hexane-3-carboxamide] |  | IC50 [2]: < 1 µM
3 | CCCCC[C@@H](C)NC(=O)[C@@H]1C[C@@]2(C)C[C@H]2N1C(=O)Cn1nc(C(C)=O)c2cc(-c3cnc(C)nc3)ccc21 [Compound 17, (1R,3S,5R)-2-(2-(3-Acetyl-5-(2-methylpyrimidin-5-yl)-1H-indazol-1-yl)acetyl)-N—((R)-heptan-2-yl)-5-methyl-2-azabicyclo[3.1.0]hexane-3-carboxamide] |  | IC50 [2]: < 1 µM
4 | COCc1ccc(Br)nc1NC(=O)[C@@H]1C[C@@]2(C)C[C@H]2N1C(=O)Cn1cc(C(C)=O)c2cc(-c3cnc(C)nc3)cc(C)c21 [Compound 214, (1R,3S,5R)-2-(2-(3-acetyl-7-methyl-5-(2-methyl-pyrimidin-5-yl)-1H-indol-1-yl)acetyl)-N-(6-bromo-3-(methoxymethyl)pyridin-2-yl)-5-methyl-2-azabicyclo[3.1.0]hexane-3-carboxamide] | < 1 µM | 
5 | CC(=O)c1nn(CC(=O)N2[C@H](C(=O)NCC3(C)CC3)C[C@@]3(C)C[C@@H]23)c2c(C)cc(-c3cnc(C)nc3)cc12 [Compound 89, (1R,3S,5R)-2-{2-[3-acetyl-7-methyl-5-(2-methylpyrimidin-5-yl)indazol-1-yl]acetyl}-5-methyl-N-[(1-methylcyclopropyl)methyl]-2-azabicyclo[3.1.0]hexane-3-carboxamide] | < 1 µM | 
6 | CC(=O)c1nn(CC(=O)N2[C@H](C(=O)Nc3nc(Br)ccc3C)C[C@@]3(C)C[C@@H]23)c2c(C)cc(-c3ccnc(CO)c3)cc12 [Compound 132, (1R,3S,5R)-2-(2-(3-acetyl-5-(2-(hydroxymethyl)pyridin-4-yl)-7-methyl-1H-indazol-1-yl)acetyl)-N-(6-bromo-3-methylpyridin-2-yl)-5-methyl-2-azabicyclo[3.1.0]hexane-3-carboxamide] | < 1 µM | 

The next lines start with results.

Row | IC50 [1] | SMILES | other results
7 | < 1 µM | CC(=O)c1nn(CC(=O)N2[C@H](C(=O)Nc3ccc(F)c(Br)n3)C[C@@]3(C)C[C@@H]23)c2c(C)cc(-c3cnc(CO)nc3)cc12 [Compound 120, (1R,3S,5R)-2-(2-(3-acetyl-5-(2-(hydroxymethyl)pyrimidin-5-yl)-7-methyl-1H-indazol-1-yl)acetyl)-N-(6-bromo-5-fluoropyridin-2-yl)-5-methyl-2-azabicyclo[3.1.0]hexane-3-carboxamide] | 
8 | < 1 µM | CC(=O)c1nn(CC(=O)N2[C@H](C(=O)N[C@H](CO)Cc3ccccc3)C[C@@]3(C)C[C@@H]23)c2c(C)cc(-c3cnc(C)nc3)cc12 [Compound 146, (1R,3S,5R)-2-{2-[3-acetyl-7-methyl-5-(2-methylpyrimidin-5-yl)indazol-1-yl]acetyl}-N-[(2S)-1-hydroxy-3-phenylpropan-2-yl]-5-methyl-2-azabicyclo[3.1.0]hexane-3-carboxamide] | 
